Results taken from patent publication US10947271B2, “Antibacterial agents” (THE UNIVERSITY OF QUEENSLAND, priority 2014, dated 2021).

Tests used:
MRSA (Strain ATCC 43300) = test: Murine thigh infection model (MRSA); assay type: in vivo, Staphylococcus aureus; settings: neutropenic CD1 mice
Experimental: Summary: Adult (8 week old) female CD1 mice were made neutropenic by two injections of cyclophosphamide 4 days and 1 day prior to infection. An inoculum of 10^5 cfu MRSA (Strain ATCC 43300) was injected intramuscularly into both left and right thighs of all mice. […] After an additional two hours, a 50 μL sample of blood was obtained from the tail bleed to analyse for presence of antibiotic compound. […] Thighs were then removed, weighed and homogenised in a fixed volume of saline. The homogenate solution was filtered, diluted and seeded onto agar plates, which were incubated overnight at 37° C. Colony counts were used to establish the cfu in the thigh homogenates, the cfu/thigh, and the cfu/g of thigh.
Compound preparation: Cyclophosphamide monohydrate (Sigma) was dissolved in sterile saline to a concentration of 30 mg/mL. Likewise, vancomycin (Sigma) and MCC compounds were also dissolved in sterile saline to a final concentration of 60 mg/mL and 18.5 mg/mL respectively. All compounds were prepared in low binding Eppendorf tubes and kept at −20° C. until used.
In vivo experimental assay: Eight week old female outbred CD1 mice (UQBR-AIBN) were rendered neutropenic by injecting two doses of cyclophosphamide intraperitoneally 4 days (150 mg/kg) and 1 day (100 mg/kg) prior to experimental infection. The infection model using MRSA was established by intramuscular injection of 50 μL of early-log-phase bacterial MRSA suspension (around 2×10^6 cfu/mL) in saline into both thigh muscles. […] Untreated animals received equivalent volume of saline (Baxter). The mice were monitored for signs of normal behaviour (i.e. grooming, eating, drinking, sleeping, and alertness) during and following dosing. Two hours after saline/antibiotic treatment, 0.05 mL of blood was collected by tail incision. 24 hours after MRSA infection, mice were euthanized and blood collected from the heart by cardiac puncture (saline group) or by tail incision (Vancomycin and MCC compound treated groups) as outlined in FIG. 1. For each mouse, both thighs were collected aseptically by cutting the leg at the hip and knee, placed in 10 mL of cold sterile saline and the individual weight of each thigh recorded.
Preparation of injectable MRSA solution: An MRSA subculture bacterial isolate (ATCC43300) was taken from the storage at −80° C. and freshly seeded on agar plates for overnight (O/N) growth. From the O/N culture preparation, a single colony was diluted into 10-12 mL of Mueller Hinton broth (MHB) and incubated O/N at 37° C. A log-phase subculture was obtained by adding 100 μL of O/N subculture in 10 mL MHB and incubated for a further 2-3 hours. Finally, the OD600 value of the bacterial suspension was determined and the colony forming units per millilitre (cfu/mL) extrapolated. A full dilution of the bacterial cell suspension in saline was achieved by washing (3220×g for 10 min) and the OD600 in saline determined. The suspension was then diluted out accordingly in order to achieve a 2×10^6 cfu/mL solution (10^5 cfu in 50 μL/thigh).
Thus, 10 μL of the injectable MRSA suspension was diluted down to 10-1000 fold, each dilution plated out onto agar plates and incubated at 37° C. for 24 hours.
Thigh homogenates and CFU determination: Thighs were homogenized at 20,000 rpm for 15 seconds using a Polytron MR2500E using a […] probe (all Kinematica).

[1] = system: Enterococcus faecium MDR Van A ATCC 51559; test: MIC assay, E. faecium MDR Van A ATCC 51559; assay type: cell-based; settings: 24 h incubation, visual reading
Procedure, shortened: (§1)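 Overnight MHB cultures at 37° C were diluted 40-fold and grown 2-3 hrs to mid-log, then added at 5×10e5 CFU/mL to twofold compound dilutions (8 to 0.003 μg/ml). Plates were incubated 24 h at 37° C and MIC scored by eye.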

[2] = system: Staphylococcus aureus MRSA ATCC 43300; test: MIC assay, S. aureus MRSA ATCC 43300; assay type: cell-based; settings: 24 h incubation, visual reading
Procedure, shortened: as §1

[3] = system: Streptococcus pneumoniae MDR ATCC 700677; test: MIC assay, S. pneumoniae MDR ATCC 700677; assay type: cell-based; settings: 24 h incubation, visual reading
Procedure, shortened: as §1

[4] = single subcutaneous dose 10 mg/kg
[5] = single subcutaneous dose 25 mg/kg

Compound: CCCCCCCCCCC(=O)N[C@@H](CCCCN)C(=O)N[C@@H](CCCCN)C(=O)N[C@@H](CCCCNC(=O)[C@H]1NC(=O)[C@H]2NC(=O)[C@H](NC(=O)[C@@H]3NC(=O)[C@H](CC(N)=O)NC(=O)[C@H](NC(=O)[C@@H](CC(C)C)NC)[C@H](O)c4ccc(c(Cl)c4)Oc4cc3cc(c4O[C@@H]3O[C@H](CO)[C@@H](O)[C@H](O)[C@H]3O[C@H]3C[C@](C)(N)[C@H](O)[C@H](C)O3)Oc3ccc(cc3Cl)[C@H]2O)c2ccc(O)c(c2)-c2c(O)cc(O)cc21)C(=O)O [MCC_000174]
- Average Reduction log Δcfu MRSA/thigh after 26 h (MRSA (Strain ATCC 43300); single subcutaneous dose 5 mg/kg): xxx (xxx = 4-6)
- Average Reduction log Δcfu MRSA/thigh after 26 h (MRSA (Strain ATCC 43300); [4]): xxx (xxx = 4-6)
- Average Reduction log Δcfu MRSA/thigh after 26 h (MRSA (Strain ATCC 43300); [5]): xxx (xxx = 4-6)
- Minimum Inhibitory Concentration (MIC) E. faecium ATCC51559 [1]: x (x = >4)
- Minimum Inhibitory Concentration (MIC) Staph. aureus ATCC43300 [2]: xxxx (xxxx = 0.01-<0.1)
- Minimum Inhibitory Concentration (MIC) S. pneumoniae ATCC 700677 [3]: xxxx (xxxx = 0.01-<0.1)

Compound: CCCCCCCCCC(=O)N[C@@H](CCCNC(=N)N)C(=O)NCCCNC(=O)[C@H]1NC(=O)[C@H]2NC(=O)[C@H](NC(=O)[C@@H]3NC(=O)[C@H](CC(N)=O)NC(=O)[C@H](NC(=O)[C@@H](CC(C)C)NC)[C@H](O)c4ccc(c(Cl)c4)Oc4cc3cc(c4O[C@@H]3O[C@H](CO)[C@@H](O)[C@H](O)[C@H]3O[C@H]3C[C@](C)(N)[C@H](O)[C@H](C)O3)Oc3ccc(cc3Cl)[C@H]2O)c2ccc(O)c(c2)-c2c(O)cc(O)cc21 [MCC_005481]
- Average Reduction log Δcfu MRSA/thigh after 26 h (MRSA (Strain ATCC 43300); [4]): xxx (xxx = 4-6)
- Minimum Inhibitory Concentration (MIC) E. faecium ATCC51559 [1]: x (x = >4)
- Minimum Inhibitory Concentration (MIC) Staph. aureus ATCC43300 [2]: xxxxx (xxxxx = <0.01)
- Minimum Inhibitory Concentration (MIC) S. pneumoniae ATCC 700677 [3]: xxxx (xxxx = 0.01-<0.1)

Compound: CNC(CC(C)C)C(=O)NC1C(=O)NC(CC(N)=O)C(=O)NC2C(=O)NC3C(=O)NC(C(=O)NC(C(=O)NCCCNC(=O)C(CCCCN)NC(=O)C(CCCCN)NC(=O)c4ccc(Oc5ccccc5)cc4)c4cc(O)cc(O)c4-c4cc3ccc4O)C(O)c3ccc(c(Cl)c3)Oc3cc2cc(c3OC2OC(CO)C(O)C(O)C2OC2CC(C)(N)C(O)C(C)O2)Oc2ccc(cc2Cl)C1O (centres unmarked) [MCC_005364]
- Average Reduction log Δcfu MRSA/thigh after 26 h (MRSA (Strain ATCC 43300); [4]): xx (xx = 2-4)
- Minimum Inhibitory Concentration (MIC) E. faecium ATCC51559 [1]: xx (xx = 1-4)
- Minimum Inhibitory Concentration (MIC) Staph. aureus ATCC43300 [2]: xxxxx (xxxxx = <0.01)
- Minimum Inhibitory Concentration (MIC) S. pneumoniae ATCC 700677 [3]: xxxx (xxxx = 0.01-<0.1)

Compound: CCCCCCCCCC(=O)N[C@@H](CCCCN)C(=O)NCCNC(=O)[C@H]1NC(=O)[C@H]2NC(=O)[C@H](NC(=O)[C@@H]3NC(=O)[C@H](CC(N)=O)NC(=O)[C@H](NC(=O)[C@@H](CC(C)C)NC)[C@H](O)c4ccc(c(Cl)c4)Oc4cc3cc(c4O[C@@H]3O[C@H](CO)[C@@H](O)[C@H](O)[C@H]3O[C@H]3C[C@](C)(N)[C@H](O)[C@H](C)O3)Oc3ccc(cc3Cl)[C@H]2O)c2ccc(O)c(c2)-c2c(O)cc(O)cc21 [MCC_005162]
- Average Reduction log Δcfu MRSA/thigh after 26 h (MRSA (Strain ATCC 43300); [4]): xxx (xxx = 4-6)
- Minimum Inhibitory Concentration (MIC) E. faecium ATCC51559 [1]: xx (xx = 1-4)
- Minimum Inhibitory Concentration (MIC) Staph. aureus ATCC43300 [2]: xxxx (xxxx = 0.01-<0.1)
- Minimum Inhibitory Concentration (MIC) S. pneumoniae ATCC 700677 [3]: xxxx (xxxx = 0.01-<0.1)

Compound: CNC(CC(C)C)C(=O)NC1C(=O)NC(CC(N)=O)C(=O)NC2C(=O)NC3C(=O)NC(C(=O)NC(C(=O)NCCCNC(=O)C(CCCCN)NC(=O)C(CCCCN)NC(=O)CC4CCCCC4)c4cc(O)cc(O)c4-c4cc3ccc4O)C(O)c3ccc(c(Cl)c3)Oc3cc2cc(c3OC2OC(CO)C(O)C(O)C2OC2CC(C)(N)C(O)C(C)O2)Oc2ccc(cc2Cl)C1O (centres unmarked) [MCC_005363]
- Average Reduction log Δcfu MRSA/thigh after 26 h (MRSA (Strain ATCC 43300); single subcutaneous dose 50 mg/kg): xxx (xxx = 4-6)
- Minimum Inhibitory Concentration (MIC) E. faecium ATCC51559 [1]: x (x = >4)
- Minimum Inhibitory Concentration (MIC) Staph. aureus ATCC43300 [2]: xxx (xxx = 0.1-<1)
- Minimum Inhibitory Concentration (MIC) S. pneumoniae ATCC 700677 [3]: xxx (xxx = 0.1-<1)

Compound: CNC(=O)[C@H](CCCCNC(=O)[C@H]1NC(=O)[C@H]2NC(=O)[C@H](NC(=O)[C@@H]3NC(=O)[C@H](CC(N)=O)NC(=O)[C@H](NC(=O)[C@@H](CC(C)C)NC)[C@H](O)c4ccc(c(Cl)c4)Oc4cc3cc(c4O[C@@H]3O[C@H](CO)[C@@H](O)[C@H](O)[C@H]3O[C@H]3C[C@](C)(N)[C@H](O)[C@H](C)O3)Oc3ccc(cc3Cl)[C@H]2O)c2ccc(O)c(c2)-c2c(O)cc(O)cc21)NC(=O)[C@H](CCCCN)NC(=O)[C@H](CCCCN)NC(=O)[C@H](CCCCNC(=O)c1ccc(Oc2ccccc2)cc1)NC(=O)c1ccc(Oc2ccccc2)cc1 [MCC_000310]
- Average Reduction log Δcfu MRSA/thigh after 26 h (MRSA (Strain ATCC 43300); [5]): x (x = 0-2)
- Minimum Inhibitory Concentration (MIC) E. faecium ATCC51559 [1]: xxx (xxx = 0.1-<1)
- Minimum Inhibitory Concentration (MIC) Staph. aureus ATCC43300 [2]: xxxxx (xxxxx = <0.01)
- Minimum Inhibitory Concentration (MIC) S. pneumoniae ATCC 700677 [3]: xxxxx (xxxxx = <0.01)

Compound: CCCCCCCC(O)CC(=O)N[C@@H](CCCCN)C(=O)N[C@@H](CCCCN)C(=O)NCCCNC(=O)[C@H]1NC(=O)[C@H]2NC(=O)[C@H](NC(=O)[C@@H]3NC(=O)[C@H](CC(N)=O)NC(=O)[C@H](NC(=O)[C@@H](CC(C)C)NC)[C@H](O)c4ccc(c(Cl)c4)Oc4cc3cc(c4O[C@@H]3O[C@H](CO)[C@@H](O)[C@H](O)[C@H]3O[C@H]3C[C@](C)(N)[C@H](O)[C@H](C)O3)Oc3ccc(cc3Cl)[C@H]2O)c2ccc(O)c(c2)-c2c(O)cc(O)cc21 (some centres unmarked) [MCC_005483]
- Average Reduction log Δcfu MRSA/thigh after 26 h (MRSA (Strain ATCC 43300); [4]): xxx (xxx = 4-6)
- Minimum Inhibitory Concentration (MIC) E. faecium ATCC51559 [1]: x (x = >4)
- Minimum Inhibitory Concentration (MIC) Staph. aureus ATCC43300 [2]: xxxx (xxxx = 0.01-<0.1)
- Minimum Inhibitory Concentration (MIC) S. pneumoniae ATCC 700677 [3]: xxxx (xxxx = 0.01-<0.1)

Compound: CNC(CC(C)C)C(=O)NC1C(=O)NC(CC(N)=O)C(=O)NC2C(=O)NC3C(=O)NC(C(=O)NC(C(=O)NCCCNC(=O)C(CCCCN)NC(=O)c4ccc(Oc5ccccc5)cc4)c4cc(O)cc(O)c4-c4cc3ccc4O)C(O)c3ccc(c(Cl)c3)Oc3cc2cc(c3OC2OC(CO)C(O)C(O)C2OC2CC(C)(N)C(O)C(C)O2)Oc2ccc(cc2Cl)C1O (centres unmarked) [MCC_007407]
- Average Reduction log Δcfu MRSA/thigh after 26 h (MRSA (Strain ATCC 43300); [4]): xxx (xxx = 4-6)
- Minimum Inhibitory Concentration (MIC) E. faecium ATCC51559 [1]: x (x = >4)
- Minimum Inhibitory Concentration (MIC) Staph. aureus ATCC43300 [2]: xxxx (xxxx = 0.01-<0.1)
- Minimum Inhibitory Concentration (MIC) S. pneumoniae ATCC 700677 [3]: xxxx (xxxx = 0.01-<0.1)

Compound: CCCCCCCCCCC(=O)N[C@@H](CCCCN)C(=O)N[C@@H](CCCCN)C(=O)NCCCNC(=O)[C@H]1NC(=O)[C@H]2NC(=O)[C@H](NC(=O)[C@@H]3NC(=O)[C@H](CC(N)=O)NC(=O)[C@H](NC(=O)[C@@H](CC(C)C)NC)[C@H](O)c4ccc(c(Cl)c4)Oc4cc3cc(c4O[C@@H]3O[C@H](CO)[C@@H](O)[C@H](O)[C@H]3O[C@H]3C[C@](C)(N)[C@H](O)[C@H](C)O3)Oc3ccc(cc3Cl)[C@H]2O)c2ccc(O)c(c2)-c2c(O)cc(O)cc21 [MCC_000344]
- Average Reduction log Δcfu MRSA/thigh after 26 h (MRSA (Strain ATCC 43300); [5]): xxx (xxx = 4-6)
- Minimum Inhibitory Concentration (MIC) E. faecium ATCC51559 [1]: xx (xx = 1-4)
- Minimum Inhibitory Concentration (MIC) Staph. aureus ATCC43300 [2]: xxxx (xxxx = 0.01-<0.1)
- Minimum Inhibitory Concentration (MIC) S. pneumoniae ATCC 700677 [3]: xxxx (xxxx = 0.01-<0.1)
